Test system: diet-induced obese mice
Experiment: Weight loss study in diet-induced obese mice, oral administration
Type: in vivo
Details: C57BL/6NTac mice on 60% fat diet; 1.0 mg/kg orally in 10% gelucire in deionised water, once a day for 8 days
Experimental: A weight loss study is conducted in obese mice. The mice in this study are not genetically obese, BUT prior to and during the study, obesity is induced by a high-fat diet. Twelve week-old C57BL/6NTac mice, are maintained on a 60% fat diet prior to and during the study, are separated into […], eight animals per group. Average body weight of the mice is taken at the start of the study.
Each of six groups is orally administered 1.0 mg/kg of a compound disclosed herein in 10% gelucire in DEIONISED water. Each of these six groups is administered a different compound. One group is orally administered fumagillin at 1.0 mg/kg in 10% gelucire in deionised water, and one group is administered 10% gelucire in deionised water (vehicle). Mice receive administrations once a day for 8 days.

In the case of `CO[C@@H]1[C@H](OC(=O)/C=C/C=C/C=C/C=C/C(=O)O)CC[C@]2(CO2)[C@H]1[C@@]1(C)O[C@@H]1CC=C(C)C` [fumagillin], the “body weight change over the course of the 8 days” value is reported as “weight over the course of the 8 days”.
